Results as given in patent US8975241B2, “Composition for treating and preventing obesity including high water-soluble 2-hydroxypropyl-betacyclodextrin as effective component” (Song Ho Biomed Co., Ltd., priority 2009, dated 2015).

Tests used:
Format in all cases: in vivo
[1] = test system: mouse model with obesity caused by a high fat diet; assay: Amount of feed intake by autonomically drinking in mouse model with obesity caused by high fat diet; settings: for Amount of Feed Intake: per group
Protocol: Male C57BL/6J mice (Five age of the week, KRIBB, Korea) were accommodated for 1 week, and then were induced with obesity by giving a high fat diet (60% fat kcal, Research Diets) for 15 days. The weights of the animals that were induced with obesity were equally divided into 3 animals as one group. And then, the solvent-control group drank sterilized distilled water, autonomically. Hydroxypropyl-β-cyclodextrin (HPBCD) was dissolved in sterilized distilled water to be 10, 15, and 20% (W/V) concentrations for drinking autonomically. A change in body weight was daily measured to all of animals during the test; the fixed amount of feeds was provided at the day of measuring body weight, and then an amount of intake per a group (g/day) was calculated by measuring a residual amount of feeds at the next day.

[2] = test system: mouse model with obesity caused by a high fat diet; assay: Change in body weight by autonomically drinking in mouse model with obesity caused by high fat diet
[3] = test system: mouse model with obesity caused by a high fat diet; assay: Weights of body fat and liver after autonomically drinking in mouse model with obesity caused by high fat diet
Protocol: The animals induced with obesity in the above <Example 1> drank autonomically HPBCD with 10, 15, and 20% (W/V) concentrations for 3 days and then their autopsies were conducted. The mice were killed by using CO2 gas; their abdomens were cut; their genital fats, intra-abdominal fats, and livers were isolated; then their weights were measured using a chemical balance; average weight of three animals was calculated.

high fat diet-mouse [4] = assay: Change in body weight by oral administration in high fat diet-mouse
Protocol: Male C57BL/6J mice (Five age of the week, KRIBB, Korea) were accommodated for 1 week. And then, the weights of the animals were equally divided into 5 animals as one group. While a high fat diet (60% fat kcal) was provided, sterilized distilled water and HPBCDs with 10, 20, and 40% (W/V) were orally administered at three times (Morning, Afternoon, Evening) a day for 5 days in 0.2 ml per 20 g body weight of a mouse at the same time. A change in body weight was measured to all of the animals during the test at one time per day; the fixed amount of feeds was provided at the day of measuring body weight, and then an average amount of intake per an animal (g/mouse/day) was calculated by measuring a residual amount of feeds at the next day.
A body weight was measured by using the same conditions as the above <Example 3>, except that BCDs with 10 and 20% (W/V) concentrations were used instead of HPBCDs with 10, 20, and 40% (W/V) concentrations.
A change in body weight was measured during the test using α-CD instead of HPBCD in the same method as the above <Example 3>.

high fat diet-mouse [5] = assay: Change of liver weight and body fat by oral administration in high fat diet-mouse; settings: oral for 5 days
Protocol: […] The mice were killed by using CO2 gas; their abdomens were cut; their subcutaneous fats, genital fats, intra-abdominal fats, and livers were isolated; then their weights were measured using a chemical balance; average weight of five animals was calculated.

[6] = 10% (w/v) in drinking water, 1 Day
[7] = 10% (w/v) in drinking water, 2 Day
[8] = 10% (w/v) in drinking water, 3 Day
[9] = 10, 15, 20% (W/V) autonomically drinking
[10] = 15% (w/v) in drinking water, 2 Day
[11] = 20% (w/v) in drinking water, 1 Day
[12] = 20% (w/v) in drinking water, 2 Day
[13] = 20% (w/v) in drinking water, 3 Day
[14] = 10% (w/v) in drinking water for 3 days
[15] = 15% (w/v) in drinking water for 3 days
[16] = 20% (w/v) in drinking water for 3 days

## 2-hydroxypropyl-β-cyclodextrin [HPBCD]
[1]; [6]
  Amount of Feed Intake: 3.9 g/day
[1]; [7]
  Amount of Feed Intake: 3.9 g/day
[1]; [8]
  Amount of Feed Intake: 2.7 g/day
[1]; [9]
  appetite / dietary intake: effect on suppressing appetite
[1]; 15% (w/v) in drinking water, 1 Day
  Amount of Feed Intake: 4.1 g/day
[1]; [10]
  Amount of Feed Intake: 4.5 g/day
[1]; 15% (w/v) in drinking water, 3 Day
  Amount of Feed Intake: 4.0 g/day
[1]; [11]
  Amount of Feed Intake: 4.2 g/day
[1]; [12]
  Amount of Feed Intake: 4.2 g/day
[1]; [13]
  Amount of Feed Intake: 2.6 g/day
[2]; 10% (w/v) in drinking water, 0 Day
  Change in body weight (%): 100.0 ± 0.0%
[2]; [6]
  Change in body weight (%): 98.1 ± 0.2%
[2]; [7]
  Change in body weight (%): 97.6 ± 0.8 %
[2]; [8]
  Change in body weight (%): 94.6 ± 0.7 %
[2]; [9]
  body weight as compared with the distilled water-drinking control group: decreased depending on the concentration
  body weight as compared with the initial body weight: significantly decreased
[2]; 15% (w/v) in drinking water, 0 Day
  Change in body weight (%): 100.0 ± 0.0%
[2]; [10]
  Change in body weight (%): 94.0 ± 1.3 %
[2]; 20% (w/v) in drinking water, 0 Day
  Change in body weight (%): 100.0 ± 0.0%
[2]; [11]
  Change in body weight (%): 100.0 ± 0.0%
[2]; [12]
  Change in body weight (%): 89.1 ± 6.9 %
[2]; [13]
  Change in body weight (%): 85.4 ± 8.1 %
[3]; [14]
  Total Amount of Fat: 1615.0 ± 212.3 mg
  Weight of Genital Fat: 594.0 ± 95.0 mg
  Weight of Intra-abdominal Fat: 158.8 ± 36.3 mg
  Weight of Liver: 999.3 ± 150.2 mg
  Weight of Subcutaneous Fat: 862.2 ± 86.7 mg
[3]; [9]
  weight of liver vs control group: decreased depending on the concentrations
[3]; [15]
  Total Amount of Fat: 1437.0 ± 282.0 mg
  Weight of Genital Fat: 524.8 ± 67.1 mg
  Weight of Intra-abdominal Fat: 147.2 ± 29.2 mg
  Weight of Liver: 820.5 ± 66.0 mg
  Weight of Subcutaneous Fat: 765.1 ± 238.8 mg
[3]; [16]
  Total Amount of Fat: 1035.6 ± 324.3 mg
  Weight of Genital Fat: 448.4 ± 108.6 mg
  Weight of Intra-abdominal Fat: 97.8 ± 44.9 mg
  Weight of Liver: 808.7 ± 76.8 mg
  Weight of Subcutaneous Fat: 489.4 ± 183.5 mg
High fat diet-mouse [4]; 10% (w/v) oral three times a day, 0 Day
  Body weight as percent of initial body weight: 100.0 ± 0.0%
High fat diet-mouse [4]; 10% (w/v) oral three times a day, 1 Day
  Body weight as percent of initial body weight: 99.3 ± 0.9 %
High fat diet-mouse [4]; 10% (w/v) oral three times a day, 2 Day
  Body weight as percent of initial body weight: 98.5 ± 1.3 %
High fat diet-mouse [4]; 10% (w/v) oral three times a day, 3 Day
  Body weight as percent of initial body weight: 98.4 ± 1.2 %
High fat diet-mouse [4]; 10% (w/v) oral three times a day, 4 Day
  Body weight as percent of initial body weight: 98.3 ± 1.2 %
High fat diet-mouse [4]; 10% (w/v) oral three times a day, 5 Day
  Body weight as percent of initial body weight: 98.7 ± 2.0 %
High fat diet-mouse [4]; 10, 20, 40% (W/V) oral
  body weight as compared with the control group: decreased depending on the concentrations
  body weight as compared with the initial body weight: significantly decreased
High fat diet-mouse [4]; 20% (w/v) oral three times a day, 0 Day
  Body weight as percent of initial body weight: 100.0 ± 0.0%
High fat diet-mouse [4]; 20% (w/v) oral three times a day, 1 Day
  Body weight as percent of initial body weight: 97.1 ± 1.0 %
High fat diet-mouse [4]; 20% (w/v) oral three times a day, 2 Day
  Body weight as percent of initial body weight: 95.6 ± 1.1 %
High fat diet-mouse [4]; 20% (w/v) oral three times a day, 3 Day
  Body weight as percent of initial body weight: 95.8 ± 1.3 %
High fat diet-mouse [4]; 20% (w/v) oral three times a day, 4 Day
  Body weight as percent of initial body weight: 96.6 ± 1.0 %
High fat diet-mouse [4]; 20% (w/v) oral three times a day, 5 Day
  Body weight as percent of initial body weight: 95.7 ± 1.5 %
High fat diet-mouse [4]; 40% (w/v) oral three times a day, 0 Day
  Body weight as percent of initial body weight: 100.0 ± 0.0%
High fat diet-mouse [4]; 40% (w/v) oral three times a day, 1 Day
  Body weight as percent of initial body weight: 95.0 ± 2.2 %
High fat diet-mouse [4]; 40% (w/v) oral three times a day, 2 Day
  Body weight as percent of initial body weight: 93.1 ± 3.4 %
High fat diet-mouse [4]; 40% (w/v) oral three times a day, 3 Day
  Body weight as percent of initial body weight: 93.5 ± 3.4 %
High fat diet-mouse [4]; 40% (w/v) oral three times a day, 4 Day
  Body weight as percent of initial body weight: 94.3 ± 2.9 %
High fat diet-mouse [4]; 40% (w/v) oral three times a day, 5 Day
  Body weight as percent of initial body weight: 94.1 ± 1.9 %
High fat diet-mouse [5]; 10% (w/v)
  Total Amount of Fat: 1233.9 ± 244.8 mg
  Weight of Genital Fat: 473.3 ± 99.6 mg
  Weight of Intra-abdominal Fat: 113.0 ± 31.5 mg
  Weight of Liver: 1011.1 ± 33.5 mg
  Weight of Subcutaneous Fat: 647.6 ± 119.5 mg
High fat diet-mouse [5]; 15% (w/v)
  Total Amount of Fat: 795.8 ± 90.1 mg
  Weight of Genital Fat: 319.6 ± 46.5 mg
  Weight of Liver: 960.2 ± 44.6 mg
  Weight of Subcutaneous Fat: 411.3 ± 43.9 mg
High fat diet-mouse [5]; 20% (w/v)
  Total Amount of Fat: 666.9 ± 75.3 mg
  Weight of Genital Fat: 240.8 ± 45.5 mg
  Weight of Intra-abdominal Fat: 43.9 ± 9.3 mg
  Weight of Liver: 990.1 ± 35.1 mg
  Weight of Subcutaneous Fat: 382.1 ± 38.3 mg
High fat diet-mouse [5]
  weight of liver vs control group: decreased depending on the concentrations
